Reference: patent US20160331662A1, “Compositions that Inhibit and Prevent the Formation of Dental Caries and Methods of Using the Same” (priority 2014, published 2016)

Key:
[1] = tested on: S. mutans UA159; experiment: Confocal microscopy of iSRCR adherence to bacteria; format: cell-based; conditions: 10 μM
Protocol: S. mutans UA159 and S. gordonii DL1 were grown overnight in TSY (30 g/L of Trypticase soy broth and 0.5 g/L yeast extract, pH 7.2) media on an eight-well Lab Tek Chamber slide system (Sigma). The cells were fixed with 3% paraformaldehyde, washed with binding buffer (20 mM HEPES pH 7.4, 150 mM NaCl and 2.5 mM CaCl2), and thereafter iSRCR1 or iSRCR123 (10 μM) were added to the cells and incubated for 60 min. The unbound SRCRs were removed by repeated washing using the binding buffer. Subsequently, Alexa fluor 488 conjugated Anti-His-tag antibody (EMD Millipore, Inc) (1:50 dilution) that can bind to the His Tag on SRCRs was added. After 60 min incubation the unbound antibody was washed away thoroughly using binding buffer, and the chamber walls were gently removed. Cover slips were then mounted with 15 μl of fluoromount-G with DAPI (Southern Biotech Inc) to stain bacterial nuclei and were sealed until ready to be imaged. The experiment without SRCRs served as control. All slides were imaged using Leica SP1 UV Confocal Laser Scanning Microscope and Zeiss LSM 710 Confocal Laser Scanning Microscope at the UAB-High resolution imaging facility (UAB-HRIF).

[2] = tested on: S. mutans UA159; experiment: Flow cytometric analysis of iSRCR adherence to bacteria; format: cell-based; conditions: 10 μM
Protocol: (§1) S. mutans UA159 and S. gordonii DL1 cells were grown overnight in TSY broth media at 37° C. and washed thoroughly with FACS buffer (20 mM HEPES pH 7.4, 150 mM NaCl and 5% non-fat dry milk) to reduce non-specific binding. Subsequently, 10 μM of iSRCR1 or iSRCR123 were added to 100 μl of cells (1×10^7 cells/ml) in binding buffer (FACS buffer+2.5 mM CaCl2) and incubated for 60 min at 37° C. The cells were later washed thoroughly with binding buffer to remove unbound iSRCRs. Subsequently, Anti-His tag Alexafluor 488 antibody (1:50 dilution) (EMD Millipore, Inc) that adheres to the His tag present on SRCRs was added to the cells and incubated for 30 min, washed three times and resuspended in 200 μl of binding buffer. Samples without iSRCRs served as control. Samples were then assayed using the FACScan machine (BD Biosciences) at the Analytical and Preparative Cytometry Facility (APCF) at UAB, and data obtained was analyzed using FlowJo 7.2.4 software.

[3] = tested on: S. gordonii DL1; experiment: as above; format: cell-based; conditions: 10 μM, compared with S. mutans
Protocol: as §1

[4] = Differential scanning calorimetry, thermostability of SRCRs with calcium; format: physicochemical; conditions: no added CaCl2
Protocol: The thermostability of SRCRs in the presence of calcium ions was analyzed using Microcal MC-II differential scanning calorimeter (GE HealthCare, USA) as described earlier. Briefly, iSRCR1 or iSRCR123 at concentration of 1 mg/ml was mixed and incubated with different concentration of CaCl2 ranging from (0-100 mM) to final volume of 400 μl of buffer containing 20 mM HEPES, 150 mM NaCl), and buffer without SRCRs served as control. Data were recorded with calorimetric scanning rates that ranged from 30° C./h to 90° C./hat 30 psi pressure. The data collected was analyzed for the unfolding temperature (Tt), and the calorimetric (ΔHcal) and van't Hoff (ΔHv) unfolding enthalpies using the Origin software package (MicroCal).

[5] = tested on: S. mutans UA159; experiment: Aggregation assay (OD700 over 60 min); format: cell-based; conditions: iSRCR 10 μM or SAG, 6 mM CaCl2
Protocol: (§2) Aggregation assays were performed as described earlier with slight modifications. Briefly, S. mutans UA159 and S. gordonii DL1 cells were grown in TSY broth media overnight at 37° C. in the presence of 5% CO2. The bacteria were centrifuged at 5000×g and washed with a buffer containing 20 mM HEPES pH 7.4, 150 mM NaCl and re-suspended to an approximate OD700 of 1. The bacterial suspension (900 μl) was mixed with 100 μl of SAG or iSRCR1 (10 μM) or iSRCR123 ([…]) or commercially synthesized (Think Peptides, Inc) SRCRP2 peptide with fluorescein amidite (FAM) at the carboxyl end ([…]-[FAM]) (SEQ ID NO:9, at both 400 μg/ml and 1 mg/ml) in the presence of 6 mM CaCl2 and aggregation was measured by recording OD700over 60 min at 5 min intervals, where the buffer alone was used as control. All experiments were carried out at least five times, and the results were analyzed with One-way ANOVA. Post-hoc testing where *, P<0.05 was considered statistically significant and results were presented as the percentage of cells aggregated.

[6] = tested on: S. gordonii DL1; experiment: Aggregation assay (OD700 over 60 min); format: cell-based; conditions: iSRCR 10 μM or SAG, 6 mM CaCl2
Protocol: as §2

Substance: iSRCR1: recombinant single SRCR domain construct of Gp340 (15 kDa), Drosophila expression system
- binding to cells by confocal microscopy (in words) [1]: binding
- increase in fluorescence intensity compared to the control [2]: 10 fold
- adherence by FACS (in words) [3]: lower adherence
- Tm [4]: 56.5 °C
- percentage of cells aggregated [5]: 17%
- percentage of cells aggregated [6]: 13%
